Key:
[1] = test system: Pentobarbital Sodium induced sleep activity in experimental mice; test: Pentobarbital Sodium induced sleep activity in mice; assay type: in vivo, Swiss Albino Mice; conditions: 50 mg HED PX or 1-MX, 25 mg HED CA; for Duration of sleep / Onset time of sleep: test substance intraperitoneal 30 min before 40 mg/kg Pentobarbital sodium; for Duration of sleep, Improvement over P-Control / Onset time of sleep, Improvement over P-Control: vs Pathological Control
Procedure: The present example was conducted to evaluate the efficacy of test substances on Pentobarbital Sodium induced sleep activity in experimental mice.
The mice were randomized into nine groups containing eight mice in each group. […] The dose information can be found below in Table 2.
On the day of experiment, mice from different groups were treated with the control and test substances respectively. After thirty minutes, all groups of mice, except for the Normal Control group were, administered with 40 mg/kg body doses of Pentobarbital sodium to induce sleep. Administration of the test substances was done via intraperitoneal injection. The onset time of sleep was recorded for all the mice. After induction of sleep, mice were placed in the inverted position and when sedation was over, time point where the mice return to its normal posture was noted. The time interval between dosing and start of sleep was recorded as latency time.

[2] = test system: Scopolamine induced amnesia in rats; test: Cognitive enhancing effect, Elevated Plus Maze, Scopolamine induced amnesia in rats; assay type: in vivo, Swiss Albino Wistar rats; conditions: for rat escape latency, Elevated Plus Maze: oral daily for ten days, day 10, 30 min before 1 mg/kg Scopolamine i.p., 50 mg HED PX or 1-MX, 25 mg HED CA; for rat escape latency, Elevated Plus Maze, Improvement over P-Control: vs Pathological Control (Scopolamine)
Procedure: (§1) The example was to evaluate the effect of the test substances on behavioral activity/memory enhancing activity in experimental rats.
(§2) The rats were randomized into nine groups containing eight rats in each group. […] The rats were treated with test substances daily for ten consecutive days.
(§3) On the tenth day test, test substances were administered orally thirty minutes before a 1 mg/kg body weight Scopolamine injection to induce amnesia in rats to all groups except control group. Administration of the Scopolamine injections were done via intraperitoneal injection. This was followed by behavioral test using Elevated Plus Maze apparatus to measure the long-term memory enhancing activity.

brain biomarkers [3] = test: Brain biomarkers in rats of the Elevated Plus Maze example; assay type: in vivo, Swiss Albino Wistar rats; parameters: Achetylcholine, Improvement over P-Control / Dopamine, Improvement over P-Control / Glutathione, Improvement over P-Control / Catalse, Improvement over P-Control / BDNF, Improvement over P-Control / Serotonin, Improvement over P-Control / Cortisol, Improvement over P-Control: concentration or dose not given beside the values; conditions: for Achetylcholine, brain biomarker / BDNF, brain biomarker / Catalse, brain biomarker / Cortisol, brain biomarker / Dopamine, brain biomarker / Glutathione, brain biomarker / Serotonin, brain biomarker: oral ten days, Scopolamine 1 mg/kg; for Achetylcholine, Improvement over P-Control / BDNF, Improvement over P-Control / Catalse, Improvement over P-Control / Cortisol, Improvement over P-Control / Dopamine, Improvement over P-Control / Glutathione, Improvement over P-Control / Serotonin, Improvement over P-Control: vs Pathological Control (Scopolamine)
Procedure: as §2, §3
(§4) Several brain biomarkers were also measured in the rats.

[4] = test system: Scopolamine induced amnesia in rats; test: Cognitive enhancing effect, Morris Water Maze, Scopolamine induced amnesia in rats; assay type: in vivo, Swiss Albino Wistar rats; conditions: for rat escape latency, Morris Water Maze: oral daily for ten days, day 10, 30 min before 1 mg/kg Scopolamine i.p., 50 mg HED PX or 1-MX, 25 mg HED CA; for rat escape latency, Morris Water Maze, Improvement over P-Control: vs Pathological Control (Scopolamine)
Procedure: as §1, §2
as §3, with “Morris Water” for “Elevated Plus”

brain biomarkers [5] = test: Brain biomarkers in rats of the Morris Water Maze example; assay type: in vivo, Swiss Albino Wistar rats; parameters: Achetylcholine, Improvement over P-Control / Dopamine, Improvement over P-Control / Glutathione, Improvement over P-Control: concentration or dose not given beside the values; conditions: for Achetylcholine, brain biomarker / Dopamine, brain biomarker / Glutathione, brain biomarker: oral ten days, Scopolamine 1 mg/kg; for Achetylcholine, Improvement over P-Control / Dopamine, Improvement over P-Control / Glutathione, Improvement over P-Control: vs Pathological Control (Scopolamine)
Procedure: as §2
as §3, with “Morris Water” for “Elevated Plus”
as §4

SMILES	Duration of sleep [1]	Onset time of sleep [1]	Duration of sleep, Improvement over P-Control [1]	Onset time of sleep, Improvement over P-Control [1]	rat escape latency, Elevated Plus Maze [2]	rat escape latency, Elevated Plus Maze, Improvement over P-Control [2]	Achetylcholine, brain biomarker (brain biomarkers [3])	BDNF, brain biomarker (brain biomarkers [3])	Catalse, brain biomarker (brain biomarkers [3])	Cortisol, brain biomarker (brain biomarkers [3])	Dopamine, brain biomarker (brain biomarkers [3])	Glutathione, brain biomarker (brain biomarkers [3])	Serotonin, brain biomarker (brain biomarkers [3])	Achetylcholine, Improvement over P-Control (brain biomarkers [3])	BDNF, Improvement over P-Control (brain biomarkers [3])	Catalse, Improvement over P-Control (brain biomarkers [3])	Cortisol, Improvement over P-Control (brain biomarkers [3])	Dopamine, Improvement over P-Control (brain biomarkers [3])	Glutathione, Improvement over P-Control (brain biomarkers [3])	Serotonin, Improvement over P-Control (brain biomarkers [3])	also measured
Cn1c(=O)[nH]c2nc[nH]c2c1=O [1-Methylxanthine, 1-methylxanthine]	57.75 min	42.25 min	107%	−16%	33.89 s	49%	28.97 U/ml	17.29 pg/mL	155.96 U/mL	79.4 ng/mL	14.51 ng/L	17.94 µg/mL	41.63 ng/mL	34%	31%	29%	−12%	25%	32%	−12%	rat escape latency, Morris Water Maze [4]: 32.43 s; rat escape latency, Morris Water Maze, Improvement over P-Control [4]: 51%; Achetylcholine, brain biomarker (brain biomarkers [5]): 30.87 U/ml; Dopamine, brain biomarker (brain biomarkers [5]): 13.66 ng/L; Glutathione, brain biomarker (brain biomarkers [5]): 16.06 µg/mL; Achetylcholine, Improvement over P-Control (brain biomarkers [5]): 53%; Dopamine, Improvement over P-Control (brain biomarkers [5]): 33%; Glutathione, Improvement over P-Control (brain biomarkers [5]): 34%
O=C(/C=C/c1ccc(O)c(O)c1)O[C@@H]1C[C@](O)(C(=O)O)C[C@@H](O)[C@H]1O [Chlorogenic acid]	74.88 min	40.5 min	169%	−20%	30 s	68%	33.17 U/ml	18.05 pg/mL	161.91 U/mL	68.51 ng/mL	15.58 ng/L	19.89 µg/mL	38.43 ng/mL	54%	37%	34%	−24%	34%	46%	−19%	rat escape latency, Morris Water Maze [4]: 28.54 s; rat escape latency, Morris Water Maze, Improvement over P-Control [4]: 72%; Achetylcholine, brain biomarker (brain biomarkers [5]): 33.03 U/ml; Dopamine, brain biomarker (brain biomarkers [5]): 14.74 ng/L; Glutathione, brain biomarker (brain biomarkers [5]): 16.85 µg/mL; Achetylcholine, Improvement over P-Control (brain biomarkers [5]): 63%; Dopamine, Improvement over P-Control (brain biomarkers [5]): 43%; Glutathione, Improvement over P-Control (brain biomarkers [5]): 41%
Cn1c(=O)[nH]c2ncn(C)c2c1=O [Paraxanthine]	66.13 min	41.5 min	137%	−18%	36.66 s	38%	32.04 U/ml	17.72 pg/mL	159.83 U/mL	73.99 ng/mL	15.06 ng/L	19.57 µg/mL	38.03 ng/mL	49%	34%	32%	−18%	30%	44%	−20%	rat escape latency, Morris Water Maze [4]: 30.46 s; rat escape latency, Morris Water Maze, Improvement over P-Control [4]: 61%; Achetylcholine, brain biomarker (brain biomarkers [5]): 34.16 U/ml; Dopamine, brain biomarker (brain biomarkers [5]): 14.21 ng/L; Glutathione, brain biomarker (brain biomarkers [5]): 17.47 µg/mL; Achetylcholine, Improvement over P-Control (brain biomarkers [5]): 69%; Dopamine, Improvement over P-Control (brain biomarkers [5]): 38%; Glutathione, Improvement over P-Control (brain biomarkers [5]): 46%

Reference: patent US20240216381A1, “Px-cholorogenic Acid Comps” (PX ING, LLC, priority 2022, published 2024)
